Measurements as given in US9370507B2, “Pyridonyl guanidine F1F0-ATPase inhibitors and therapeutic uses thereof” (Lycera Corporation, priority 2010, dated 2016).

Legend:
[1] = molecular target: T1, F1F0-ATPase (Bos taurus, UniProt P13621); experiment: Inhibition of F1F0-ATPase activity in synthesizing ATP; type: biochemical; settings: inhibition of ATP synthesis; read-out: ATP Syn IC50
T1 construct: from tissue
Experimental: (§1) The compounds listed in Table 4 were tested for activity against F1F0-ATPase by measuring the ability of the compounds to inhibit ATP synthesis. In addition, the compounds were assessed for cytotoxicity in Ramos cells Inhibition of F1F0-ATPase activity in synthesizing ATP and cytotoxicity in Ramos cells were measured according to the procedures described in K. M. Johnson et al. Chemistry & Biology 2005, 12, 485-496.

[2] = tested on: Ramos cells; experiment: Cytotoxicity in Ramos cells; type: cell-based; settings: Homo sapiens, read-out: Ramos Cell EC50
Experimental: as §1

Compound | IC50 [1] [µM] | EC50 [2] [µM]
O=C(/N=C(/NCc1ccc(F)c(Cl)c1)Nc1cccc(O)n1)c1ccc(F)c(F)c1 [Compound A-27] | < 10 | < 10
O=C(/N=C(\NCC(F)(F)F)Nc1cccc(O)n1)c1ccc(Cl)cc1 [Compound A-56] | < 10 | < 10
O=C(/N=C(/NCc1ccc(F)cc1Cl)Nc1cccc(O)n1)c1ccc(Cl)cc1 [Compound A-81] | < 10 | < 10
Cc1cc(CN/C(=N/C(=O)c2ccc(C(F)(F)F)cc2)Nc2cccc(O)n2)no1 [Compound A-53] | < 10 | < 10
O=C(/N=C(\Nc1cccc(O)n1)NC1CCCCCC1)c1ccc(C(F)(F)F)cc1 [Compound A-39] | < 10 | < 10
O=C(/N=C(\Nc1cccc(O)n1)NC1CC1)c1ccc(C(F)(F)F)cc1 [Compound A-48] | < 10 | > 10
CC(C)(N/C(=N\C(=O)c1ccc(Cl)cc1)Nc1cccc(O)n1)C(F)(F)F [Compound A-57] | < 10 | < 10
O=C(/N=C(/Nc1ccc(F)c(Cl)c1)Nc1cccc(O)n1)c1ccc(C(F)(F)F)cc1 [Compound A-5] | < 10 | < 10
O=C(/N=C(\Nc1cccc(O)n1)NC1CCC(F)(F)CC1)c1ccc(C(F)(F)F)cc1 [Compound A-30] | < 10 | < 10
N#CCS(=O)(=O)Nc1cccc(N/C(=N\C(=O)c2ccc(F)c(F)c2)NCc2ccccc2C(F)(F)F)n1 [Compound A-151] | < 10 | < 10
CC(C)(C)c1ccccc1N/C(=N/C(=O)c1ccc(C(F)(F)F)cc1)Nc1cccc(O)n1 [Compound A-14] | < 10 | < 10
CC(C)(C)N/C(=N/C(=O)c1ccc(C(F)(F)F)cc1)Nc1cccc(O)n1 [Compound A-41] | < 10 | < 10
O=C(/N=C(/NCc1ccc(F)c(F)c1)Nc1cccc(O)n1)c1ccc(C(F)(F)F)cc1 [Compound A-36] | < 10 | < 10
CC(=O)Nc1cccc(N/C(=N\C(=O)c2ccc(Cl)cc2)NCC(C)(C)C)n1 [Compound A-143] | < 10 | < 10
O=C(/N=C(/Nc1cccc(O)n1)NC(C1CC1)C1CC1)c1ccc(C(F)(F)F)cc1 [Compound A-59] | < 10 | < 10
CC(C)(N/C(=N/C(=O)c1ccc(C(F)(F)F)cc1)Nc1cccc(O)n1)C(F)(F)F [Compound A-51] | < 10 | < 10
O=C(/N=C(/NCc1cc(F)c(F)c(F)c1)Nc1cccc(O)n1)c1ccc(Cl)cc1 [Compound A-60] | < 10 | > 10
O=C(N=C(Nc1cccc(O)n1)NC1CCC(C(F)(F)F)CC1)c1ccc(Cl)cc1 (stereo not shown) [Compound A-64] | < 10 | < 10
O=C(/N=C(/NCc1ccccc1C(F)(F)F)Nc1cccc(O)n1)c1ccc(Cl)cc1 [Compound A-77] | < 10 | < 10
COCC(C)N/C(=N/C(=O)c1ccc(F)c(F)c1)Nc1cccc(O)n1 (stereo not shown) [Compound A-100] | > 10 | > 10
O=C(/N=C(/Nc1cccc(C(F)(F)F)c1)Nc1cccc(O)n1)c1cccc(Cl)c1 [Compound A-16] | < 10 | < 10
CCC(C)(C)N/C(=N/C(=O)c1ccc(F)c(F)c1)Nc1cccc(O)n1 [Compound A-96] | < 10 | < 10
O=C(/N=C(\Nc1cccc(O)n1)NC1CCC(F)(F)CC1)c1ccc(F)c(F)c1 [Compound A-31] | < 10 | < 10
O=C(/N=C(/NCC1CCCCC1)Nc1cccc(O)n1)c1ccc(C(F)(F)F)cc1 [Compound A-42] | < 10 | < 10
O=C(/N=C(/Nc1cccc(C(F)(F)F)c1)Nc1cccc(O)n1)c1ccc(Cl)cc1 [Compound A-15] | < 10 | < 10
O=C(/N=C(/NCc1ccc(F)c(Cl)c1)Nc1cccc(O)n1)c1ccc(C(F)(F)F)cc1 [Compound A-28] | < 10 | < 10
O=C(/N=C(/Nc1cccc(C(F)(F)F)c1)Nc1cccc(Br)n1)c1cccc(C(F)(F)F)c1 [Compound A-120] | > 10 | > 10

Compound | IC50 [1] [µM] | EC50 [2] [µM]
O=C(/N=C(/NCc1ccc(F)c(F)c1)Nc1cccc(O)n1)c1ccc(Cl)cc1 [Compound A-80] | < 10 | < 10
C[C@@H](N/C(=N/C(=O)c1ccc(C(F)(F)F)cc1)Nc1cccc(O)n1)C1CCCCC1 [Compound A-91] | < 10 | < 10
Cc1noc(C)c1S(=O)(=O)Nc1cccc(N/C(=N\C(=O)c2ccc(Cl)cc2)NCc2ccc(Cl)cc2F)n1 [Compound A-146] | < 10 | < 10
O=C(/N=C(/NCC(F)(F)F)Nc1cccc(O)n1)c1ccc(C(F)(F)F)cc1 [Compound A-52] | < 10 | < 10
CC1(N/C(=N\C(=O)c2ccc(Cl)cc2)Nc2cccc(O)n2)CCC1 [Compound A-58] | < 10 | < 10
CC(C)(C)N/C(=N/C(=O)c1ccc(C(F)(F)F)cc1)Nc1cccc(NS(=O)(=O)CC(F)(F)F)n1 [Compound A-129] | < 10 | < 10
CCOC(=O)Nc1cccc(N/C(=N\C(=O)c2ccc(F)c(F)c2)NCc2ccc(Cl)cc2F)n1 [Compound A-112] | < 10 | > 10
CC1CCCCC1NC(=NC(=O)c1ccc(C(F)(F)F)cc1)Nc1cccc(O)n1 (stereo not shown) [Compound A-43] | < 10 | > 10
O=C(/N=C(/Nc1cccc(Cl)c1)Nc1cccc(O)n1)c1ccc(Cl)cc1 [Compound A-25] | < 10 | > 10
O=C(/N=C(\Nc1cccc(NS(=O)(=O)CC(F)(F)F)n1)NC(C1CC1)C1CC1)c1ccc(Cl)cc1 [Compound A-127] | < 10 | < 10
CCS(=O)(=O)Nc1cccc(N/C(=N\C(=O)c2ccc(C(F)(F)F)cc2)NCc2ccccc2C(F)(F)F)n1 [Compound A-115] | < 10 | < 10
Cc1cc(CN/C(=N/C(=O)c2ccc(F)c(F)c2)Nc2cccc(O)n2)no1 [Compound A-54] | < 10 | > 10
O=C(/N=C(/NCC1CC1)Nc1cccc(O)n1)c1ccc(C(F)(F)F)cc1 [Compound A-40] | < 10 | < 10
CC(C)(C)CN/C(=N/C(=O)c1ccc(Cl)cc1)Nc1cccc(NS(=O)(=O)c2ccccc2)n1 [Compound A-133] | < 10 | > 10
O=C(/N=C(/Nc1cccc(C(F)(F)F)c1)Nc1cccc(O)n1)c1ccc(F)c(F)c1 [Compound A-3] | < 10 | < 10
CS(=O)(=O)Nc1cccc(N/C(=N\C(=O)c2ccc(C(F)(F)F)cc2)Nc2cc(F)cc(Cl)c2)n1 [Compound A-123] | < 10 | < 10
CC(C)N/C(=N/C(=O)c1ccc(F)c(F)c1)Nc1cccc(O)n1 [Compound A-107] | < 10 | > 10
O=C(/N=C(/NCc1ccccc1C(F)(F)F)Nc1cccc(O)n1)c1ccc(F)c(F)c1 [Compound A-73] | < 10 | < 10
COc1cccc(N/C(=N\C(=O)c2cccc(C(F)(F)F)c2)Nc2cccc(C(F)(F)F)c2)n1 [Compound A-119] | > 10 | > 10
O=C(/N=C(/NCc1ccccc1Cl)Nc1cccc(O)n1)c1ccc(Cl)cc1 [Compound A-87] | < 10 | < 10
C[C@@H](N/C(=N/C(=O)c1ccc(Cl)cc1)Nc1cccc(O)n1)C1CCCCC1 [Compound A-103] | < 10 | < 10
O=C(/N=C(/Nc1cccc(Cl)c1)Nc1cccc(O)n1)c1ccc(F)c(F)c1 [Compound A-24] | < 10 | < 10
O=C(/N=C(/NCc1ccccc1C(F)(F)F)Nc1cccc(NS(=O)(=O)CC(F)(F)F)n1)c1ccc(F)c(F)c1 [Compound A-149] | < 10 | < 10
O=C(/N=C(/Nc1cc(F)cc(Cl)c1)Nc1cccc(O)n1)c1cccc(C(F)(F)F)c1 [Compound A-22] | < 10 | < 10
O=C(/N=C(/NCc1cccc(C(F)(F)F)c1)Nc1cccc(O)n1)c1ccc(C(F)(F)F)cc1 [Compound A-33] | < 10 | < 10
O=C(/N=C(/NCc1ccccc1C(F)(F)F)Nc1cccc(NS(=O)(=O)CC(F)(F)F)n1)c1ccc(C(F)(F)F)cc1 [Compound A-116] | < 10 | < 10
